Tests used:
[1] = target: ErbB2 WT (Homo sapiens (Human), UniProt P04626); assay: ErbB Enzyme Assay (HTRF KinEASE-TK), Assay 2; format: biochemical
[2] = target: EGFR (Homo sapiens (Human), UniProt P00533); assay: ErbB Enzyme Assay (HTRF KinEASE-TK), Assay 3; format: biochemical
[3] = target: ErbB2 with Exon 20 YVMA insertion (HER2-YVMA) (Homo sapiens (Human), UniProt P04626, INS775YVMA); assay: Cellular Phosphorylation Assay, Assay 4 (constitutive ErbB2 phosphorylation, NIH 3T3 cells); format: cell-based
[4] = target: EGFR wild type (EGFR WT) (Homo sapiens (Human), UniProt P00533); assay: Cellular Phosphorylation Assay, Assay 5 (EGF-stimulated EGFR phosphorylation, NIH 3T3 cells); format: cell-based
[5] = EGF-stimulated EGFR WT phosphorylation
[6] = cellular ErbB2 YVMA phosphorylation
[7] = cellular EGFR WT phosphorylation, EGF-stimulated

Chain of ErbB2 WT (P04626 23-1255): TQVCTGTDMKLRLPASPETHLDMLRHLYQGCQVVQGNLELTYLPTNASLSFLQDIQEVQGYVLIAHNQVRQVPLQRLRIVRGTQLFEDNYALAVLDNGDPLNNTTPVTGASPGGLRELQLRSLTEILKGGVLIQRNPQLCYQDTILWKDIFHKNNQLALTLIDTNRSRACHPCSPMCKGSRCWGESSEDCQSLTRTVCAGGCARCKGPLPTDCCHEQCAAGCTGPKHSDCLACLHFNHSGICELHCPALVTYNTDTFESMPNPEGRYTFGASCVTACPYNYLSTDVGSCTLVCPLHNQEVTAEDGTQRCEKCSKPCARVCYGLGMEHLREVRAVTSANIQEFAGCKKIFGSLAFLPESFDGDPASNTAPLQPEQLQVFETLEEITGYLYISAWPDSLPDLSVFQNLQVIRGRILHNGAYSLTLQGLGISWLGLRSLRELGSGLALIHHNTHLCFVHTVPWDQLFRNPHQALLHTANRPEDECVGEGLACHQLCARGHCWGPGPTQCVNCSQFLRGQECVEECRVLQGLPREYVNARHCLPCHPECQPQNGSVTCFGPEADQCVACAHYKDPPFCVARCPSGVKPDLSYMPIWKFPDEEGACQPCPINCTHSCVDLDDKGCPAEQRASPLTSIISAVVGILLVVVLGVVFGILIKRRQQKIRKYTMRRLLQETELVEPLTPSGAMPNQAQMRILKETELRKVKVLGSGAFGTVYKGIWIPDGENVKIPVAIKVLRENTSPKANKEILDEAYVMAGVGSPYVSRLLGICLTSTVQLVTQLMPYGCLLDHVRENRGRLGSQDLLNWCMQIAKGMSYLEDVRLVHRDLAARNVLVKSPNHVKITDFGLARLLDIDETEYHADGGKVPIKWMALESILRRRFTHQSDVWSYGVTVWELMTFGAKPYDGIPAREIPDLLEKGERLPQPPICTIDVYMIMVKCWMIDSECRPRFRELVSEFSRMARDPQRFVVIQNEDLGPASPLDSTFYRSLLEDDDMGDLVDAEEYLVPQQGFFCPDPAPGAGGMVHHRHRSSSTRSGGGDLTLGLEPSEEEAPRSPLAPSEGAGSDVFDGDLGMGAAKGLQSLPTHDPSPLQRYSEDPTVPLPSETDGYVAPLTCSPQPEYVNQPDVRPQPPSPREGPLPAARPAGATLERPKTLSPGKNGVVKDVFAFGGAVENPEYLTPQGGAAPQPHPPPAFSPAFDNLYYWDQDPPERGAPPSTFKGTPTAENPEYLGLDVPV
Chain of EGFR wild type (EGFR WT) (P00533 25-1210): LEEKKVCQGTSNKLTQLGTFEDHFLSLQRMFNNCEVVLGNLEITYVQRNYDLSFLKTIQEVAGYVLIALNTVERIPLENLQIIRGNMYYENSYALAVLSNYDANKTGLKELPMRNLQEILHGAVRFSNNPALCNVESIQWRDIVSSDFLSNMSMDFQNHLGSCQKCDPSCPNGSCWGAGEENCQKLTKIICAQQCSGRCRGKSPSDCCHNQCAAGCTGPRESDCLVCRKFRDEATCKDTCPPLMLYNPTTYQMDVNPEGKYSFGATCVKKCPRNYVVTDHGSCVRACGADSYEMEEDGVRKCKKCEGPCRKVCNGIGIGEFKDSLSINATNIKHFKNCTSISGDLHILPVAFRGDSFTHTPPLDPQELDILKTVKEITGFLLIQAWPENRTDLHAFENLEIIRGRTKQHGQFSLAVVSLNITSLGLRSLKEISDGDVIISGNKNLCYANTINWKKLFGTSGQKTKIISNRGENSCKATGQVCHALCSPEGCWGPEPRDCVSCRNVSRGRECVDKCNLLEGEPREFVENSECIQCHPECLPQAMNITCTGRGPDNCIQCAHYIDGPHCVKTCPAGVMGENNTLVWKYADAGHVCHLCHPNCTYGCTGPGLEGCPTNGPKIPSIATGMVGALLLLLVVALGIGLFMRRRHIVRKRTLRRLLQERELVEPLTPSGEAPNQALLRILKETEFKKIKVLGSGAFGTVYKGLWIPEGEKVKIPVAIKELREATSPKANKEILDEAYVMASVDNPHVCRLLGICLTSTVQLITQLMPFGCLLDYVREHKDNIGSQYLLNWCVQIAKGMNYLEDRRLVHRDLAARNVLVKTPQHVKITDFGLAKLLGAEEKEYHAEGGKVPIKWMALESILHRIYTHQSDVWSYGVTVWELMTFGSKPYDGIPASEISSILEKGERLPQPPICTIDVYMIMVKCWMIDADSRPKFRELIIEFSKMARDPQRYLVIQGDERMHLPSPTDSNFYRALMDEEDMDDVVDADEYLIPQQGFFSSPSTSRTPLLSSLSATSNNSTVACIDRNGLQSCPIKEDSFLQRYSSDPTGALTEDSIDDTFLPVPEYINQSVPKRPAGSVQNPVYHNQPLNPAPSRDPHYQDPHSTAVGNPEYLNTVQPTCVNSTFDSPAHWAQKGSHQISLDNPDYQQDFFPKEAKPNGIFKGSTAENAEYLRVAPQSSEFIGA
Chain of EGFR (P00533 25-1210): as above
Chain of ErbB2 with Exon 20 YVMA insertion (HER2-YVMA) (P04626 other isoform, or with tags, fused parts or gaps ins YVMA behind 775): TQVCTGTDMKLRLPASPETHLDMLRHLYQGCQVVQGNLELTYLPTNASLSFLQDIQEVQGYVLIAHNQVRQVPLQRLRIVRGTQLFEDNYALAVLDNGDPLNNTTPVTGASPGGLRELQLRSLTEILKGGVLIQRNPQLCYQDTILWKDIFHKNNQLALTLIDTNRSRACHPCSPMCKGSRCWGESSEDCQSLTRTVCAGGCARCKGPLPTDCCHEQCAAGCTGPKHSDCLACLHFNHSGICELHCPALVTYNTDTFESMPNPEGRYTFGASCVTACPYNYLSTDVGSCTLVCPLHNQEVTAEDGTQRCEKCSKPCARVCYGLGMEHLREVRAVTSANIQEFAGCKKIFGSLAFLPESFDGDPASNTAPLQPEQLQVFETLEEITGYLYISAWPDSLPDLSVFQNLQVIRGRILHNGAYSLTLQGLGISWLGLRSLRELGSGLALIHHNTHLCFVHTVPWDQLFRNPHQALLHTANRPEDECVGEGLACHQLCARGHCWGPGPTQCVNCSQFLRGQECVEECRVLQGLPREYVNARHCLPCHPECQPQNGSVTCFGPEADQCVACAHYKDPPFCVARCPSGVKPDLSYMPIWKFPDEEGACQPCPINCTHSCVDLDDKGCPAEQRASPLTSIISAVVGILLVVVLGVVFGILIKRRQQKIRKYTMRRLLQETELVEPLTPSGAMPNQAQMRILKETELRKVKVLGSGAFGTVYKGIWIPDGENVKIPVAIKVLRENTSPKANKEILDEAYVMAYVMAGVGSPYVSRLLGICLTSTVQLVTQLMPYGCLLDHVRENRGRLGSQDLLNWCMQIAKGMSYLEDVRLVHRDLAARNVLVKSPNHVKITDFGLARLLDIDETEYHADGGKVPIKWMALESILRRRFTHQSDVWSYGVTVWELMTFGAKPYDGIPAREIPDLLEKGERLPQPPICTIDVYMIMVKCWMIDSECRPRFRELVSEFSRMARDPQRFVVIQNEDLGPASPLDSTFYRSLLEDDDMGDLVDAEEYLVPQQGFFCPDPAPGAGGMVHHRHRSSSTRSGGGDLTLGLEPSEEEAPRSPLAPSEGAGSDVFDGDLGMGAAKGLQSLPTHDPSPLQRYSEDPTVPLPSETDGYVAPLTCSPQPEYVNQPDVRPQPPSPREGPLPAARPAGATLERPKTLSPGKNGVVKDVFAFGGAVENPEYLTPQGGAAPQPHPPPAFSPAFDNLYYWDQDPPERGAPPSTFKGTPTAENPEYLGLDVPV

IC50 ([1]; ErbB2 WT enzyme) [nM] | IC50 ([2]; EGFR enzyme) [nM] | IC50 ([3]; ErbB2 YVMA phosphorylation) [nM] | IC50 [4, 5] [nM] | IC50 ([1]; ErbB2 WT enzyme assay) [nM] | IC50 ([2]; EGFR enzyme assay) [nM] | IC50 [3, 6] [nM] | IC50 [4, 7] [nM] | Compound
– | – | – | – | 9.7 | 1120 | 49.2 | ≥ 5000 | C=CC(=O)N1C[C@H]2CC[C@@H]1[C@H](c1ccc3ncnc(Nc4ccc(Oc5ccn6ncnc6c5)c(C)c4F)c3n1)C2 [Example 397]
11.1 | 1280 | 41.2 | 1790 | – | – | – | – | C=CC(=O)N1CCCC(c2ccc3ncnc(Nc4ccc(Oc5ccn6ncnc6c5)c(C)c4F)c3n2)CC1 (centres unmarked) [Example 189, 1-(4-(4-((4-([1,2,4]triazolo[1,5-a]pyridin-7-yloxy)-2-fluoro-3-methylphenyl)amino)pyrido[3,2-d]pyrimidin-6-yl)azepan-1-yl)prop-2-en-1-one]
– | – | – | – | 57.2 | ≥ 10000 | 66.9 | ≥ 5000 | C=CC(=O)N1[C@@H](C)CN(c2ccc3ncnc(Nc4ccc(Oc5ccc6c(c5)ncn6C)c(C)c4F)c3n2)C[C@@H]1C [Example 256]
99.1 | 1450 | 41.1 | 1240 | – | – | – | – | C=CC(=O)N1CCC(Oc2ccc3ncnc(Nc4ccc(Oc5cnn6c(C)cnc6c5)c(Cl)c4F)c3n2)CC1 [Example 53, 1-(4-((4-((3-chloro-2-fluoro-4-((3-methylimidazo[1,2-b]pyridazin-7-yl)oxy)phenyl)amino)pyrido[3,2-d]pyrimidin-6-yl)oxy)piperidin-1-yl)prop-2-en-1-one]
– | – | – | – | 8.8 | 121 | 4.1 | 178 | C=CC(=O)N1CCC12CN(c1ccc3ncnc(Nc4ccc(Oc5ccn6ncnc6c5)c(Cl)c4F)c3n1)C2 [Example 360]
13.2 | 900 | 20.8 | 2940 | – | – | – | – | C=CC(=O)N1CCCCC(c2ccc3ncnc(Nc4ccc(Oc5ccn6ncnc6c5)c(C)c4)c3n2)C1 (centres unmarked) [Example 204, 1-(3-(4-((4-([1,2,4]triazolo[1,5-a]pyridin-7-yloxy)-3-methylphenyl)amino)pyrido[3,2-d]pyrimidin-6-yl)azepan-1-yl)prop-2-en-1-one]
422 | ≥ 10000 | 35.8 | ≥ 5000 | – | – | – | – | C=CC(=O)N1CC[C@H]2C[C@@H]1CN2c1ccc2ncnc(Nc3ccc(Oc4ccc5c(c4)ncn5C)c(C)c3F)c2n1 [Example 67, 1-((1R,5S)-6-(4-((2-fluoro-3-methyl-4-((1-methyl-1H-benzo[d]imidazol-5-yl)oxy)phenyl)amino)pyrido[3,2-d]pyrimidin-6-yl)-2,6-diazabicyclo[3.2.1]octan-2-yl)prop-2-en-1-one]
– | – | – | – | 148 | ≥ 10000 | 204 | ≥ 5000 | C=CC(=O)N1[C@H](C)CN(c2ccc3ncnc(Nc4cc(C)c(Oc5ccn6ncnc6c5)cc4F)c3n2)C[C@@H]1C [Example 263]
39.1 | 321 | 16.5 | 366 | – | – | – | – | C=CC(=O)N1CCN(c2nc3c(Nc4ccc(Oc5ccc6cn(C)nc6c5)c(C)c4)ncnc3cc2OC)CC1 [Example 158, 1-(4-(7-methoxy-4-((3-methyl-4-((2-methyl-2H-indazol-6-yl)oxy)phenyl)amino)pyrido[3,2-d]pyrimidin-6-yl)piperazin-1-yl)prop-2-en-1-one]
– | – | – | – | 217 | ≥ 10000 | 94.3 | ≥ 5000 | C=CC(=O)N1C[C@H]2CC[C@@H]1C[C@H]2c1ccc2ncnc(Nc3cc(C)c(Oc4cnc5c(c4)ncn5C)cc3F)c2n1 [Example 421]

Second part, the compound before the results:

Compound | IC50 ([1]; ErbB2 WT enzyme) [nM] | IC50 ([2]; EGFR enzyme) [nM] | IC50 ([3]; ErbB2 YVMA phosphorylation) [nM] | IC50 [4, 5] [nM] | IC50 ([1]; ErbB2 WT enzyme assay) [nM] | IC50 ([2]; EGFR enzyme assay) [nM] | IC50 [3, 6] [nM] | IC50 [4, 7] [nM]
C=CC(=O)N1CCC(c2nc3c(Nc4ccc(Oc5ccn6ncnc6c5)c(C)c4F)ncnc3cc2OC)CC1 [Example 155, 1-(4-(4-((4-([1,2,4]triazolo[1,5-a]pyridin-7-yloxy)-2-fluoro-3-methylphenyl)amino)-7-methoxypyrido[3,2-d]pyrimidin-6-yl)piperidin-1-yl)prop-2-en-1-one] | 9720 | ≥ 10000 | 3950 | ≥ 5000 | – | – | – | –
C=CC(=O)N1C[C@@H]2C[C@H]1CC[C@@H]2c1ccc2ncnc(Nc3cc(C)c(Oc4ccn5ncnc5c4)cc3F)c2n1 [Example 380] | – | – | – | – | 68.1 | 5680 | 125 | ≥ 5000
CC#CC(=O)N1CCC[C@@H](c2ccc3ncnc(Nc4ccc(Oc5ccn6ncnc6c5)c(C)c4F)c3n2)CC1 (single isomer, unassigned) [Example 211] | 65.4 | 5400 | 317 | ≥ 5000 | – | – | – | –
C=CC(=O)N1CCN(c2ccc3ncnc(Nc4cc(C)c(Oc5ccn6ncnc6c5)cc4F)c3n2)C[C@H]1C(C)(C)C [Example 310] | – | – | – | – | 10000 | ≥ 10000 | 33.4 | ≥ 5000
CC#CC(=O)N1CCN(c2ccc3ncnc(Nc4ccc(Oc5ccn6ncnc6c5)c(Cl)c4F)c3n2)C[C@H]1C [Example 178, (R)-1-(4-(4-((4-([1,2,4]triazolo[1,5-a]pyridin-7-yloxy)-3-chloro-2-fluorophenyl)amino)pyrido[3,2-d]pyrimidin-6-yl)-2-methylpiperazin-1-yl)but-2-yn-1-one] | 8 | 443 | 27.7 | 437 | – | – | – | –
C=CC(=O)N1CCN(c2ccc3ncnc(Nc4ccc(Oc5ccn6ncnc6c5)c(C(F)(F)F)c4)c3n2)CC1(C)C [Example 242, 1-(4-(4-((4-([1,2,4]triazolo[1,5-a]pyridin-7-yloxy)-3-(trifluoromethyl)phenyl)amino)pyrido[3,2-d]pyrimidin-6-yl)-2,2-dimethylpiperazin-1-yl)prop-2-en-1-one] | 184 | 4430 | 95.6 | 3460 | – | – | – | –
C=CC(=O)N1CCN(c2ccc3ncnc(Nc4cc(F)c(Oc5ccn6ncnc6c5)cc4F)c3n2)CC1(C)C [Example 453] | – | – | – | – | 147 | ≥ 10000 | 56.3 | ≥ 5000
C=CC(=O)N1C[C@H](c2ccc3ncnc(Nc4ccc(Oc5ccn6ncnc6c5)c(C)c4F)c3n2)C[C@H]1C (mixture of isomers) [Example 387] | – | – | – | – | 52.1 | 2200 | 60.8 | 4280
C=CC(=O)N1C[C@H]2CC[C@H](c3ccc4ncnc(Nc5ccc(Oc6ccn7ncnc7c6)c(C)c5)c4n3)[C@H]2C1 [Example 409] | – | – | – | – | 43.1 | 1970 | 34.6 | ≥ 5000
C=CC(=O)N1C[C@@H]2CC[C@H]1CN2c1ccc2ncnc(Nc3cc(C)c(Oc4cnc5c(c4)ncn5C)cc3F)c2n1 [Example 324] | – | – | – | – | 50.8 | 419 | 10.2 | 276
C=CC(=O)N1CC[C@@H]2C[C@H]1CN2c1ccc2ncnc(Nc3ccc(Oc4ccc5c(c4)ncn5C)c(C)c3F)c2n1 [Example 29, 1-((1 S,5R)-6-(4-((2-fluoro-3-methyl-4-((1-methyl-1H-benzo[d]imidazol-5-yl)oxy)phenyl)amino)pyrido[3,2-d]pyrimidin-6-yl)-2,6-diazabicyclo[3.2.1]octan-2-yl)prop-2-en-1-one] | 36.5 | 311 | 5.8 | 118 | – | – | – | –
C=CC(=O)N1CCCCC(c2ccc3ncnc(Nc4ccc(Oc5ccc6c(c5)ncn6C)c(C)c4)c3n2)C1 (centres unmarked) [Example 126, 1-(3-(4-((3-methyl-4-((1-methyl-1H-benzo[d]imidazol-5-yl)oxy)phenyl)amino)pyrido[3,2-d]pyrimidin-6-yl)azepan-1-yl)prop-2-en-1-one] | 12.3 | 1260 | 12.2 | 1770 | – | – | – | –
C=CC(=O)N1CCC(Oc2ccc3ncnc(Nc4cc(Cl)c(Oc5ccc6cn(C)nc6c5)cc4F)c3n2)CC1 [Example 4, 1-(4-((4-((5-chloro-2-fluoro-4-((2-methyl-2H-indazol-6-yl)oxy)phenyl)amino)pyrido[3,2-d]pyrimidin-6-yl)oxy)piperidin-1-yl)prop-2-en-1-one] | 876 | ≥ 10000 | 392 | ≥ 5000 | – | – | – | –
C=CC(=O)N1CCN(c2ccc3ncnc(Nc4ccc(Oc5cc(F)c6c(c5)ncn6C)c(C)c4)c3n2)CC12CC2 [Example 281] | – | – | – | – | 10.4 | 102 | 10.9 | 129
C=CC(=O)N1[C@@H]2CC[C@H]1[C@H](c1ccc3ncnc(Nc4cc(C)c(Oc5cnc6c(c5)ncn6C)cc4F)c3n1)C2 [Example 417] | – | – | – | – | 215 | ≥ 10000 | 51.6 | ≥ 5000
C=CC(=O)N1C[C@H](c2ccc3ncnc(Nc4ccc(Oc5ccn6ncnc6c5)c(C)c4F)c3n2)CC1(C)C (racemic) [Example 296] | – | – | – | – | 58.5 | 881 | 36.1 | 1440
C=CC(=O)N1C[C@H]2CC[C@@H]1CN2c1ccc2ncnc(Nc3cc(Cl)c(Oc4ccn5ncnc5c4)cc3F)c2n1 [Example 330] | – | – | – | – | 239 | ≥ 10000 | 241 | ≥ 5000
C=CC(=O)N1[C@@H]2CC[C@H]1C[C@@H](c1ccc3ncnc(Nc4cc(C)c(Oc5cnc6c(c5)ncn6C)cc4F)c3n1)C2 [Example 226, 1-((1R,3r,5S)-3-(4-((2-fluoro-5-methyl-4-((3-methyl-3H-imidazo[4,5-b]pyridin-6-yl)oxy)phenyl)amino)pyrido[3,2-d]pyrimidin-6-yl)-8-azabicyclo[3.2.1]octan-8-yl)prop-2-en-1-one] | 310 | ≥ 10000 | 37.5 | ≥ 5000 | – | – | – | –
CC#CC(=O)N1CCC[C@@H](c2ccc3ncnc(Nc4ccc(Oc5ccn6ncnc6c5)c(C)c4F)c3n2)CC1 (single isomer, unassigned) [Example 212] | 66.2 | 3380 | 386 | ≥ 5000 | – | – | – | –
